# Measured values taken from patent US11058688B2, “Imidazopiperazine inhibitors of transcription activating proteins” (Board of Regents, The University of Texas System, priority 2018, dated 2021).
# Columns and labels:
# [1] = target: GST-CBP(1081-1197) bromodomain (Homo sapiens (Human), UniProt Q92793); test: CBP AlphaScreen Assay; settings: binding to biotin-H4(1-21) Ac-K5/8/12/16 peptide
# Protocol: (§1) Specific binding of the CBP or BRD4 bromodomain to the acetylated peptide derived from the H4 histone substrate (tetra acetylated H4(1-21) Ac-K5/8/12/16) was measured in absence or presence of inhibitors.
# (§2) The standard dose response curves were fitted by Genedata Screener software using the variable-slope model: Signal=Signalnegative control+(SignalDMSO control−Signalnegative control)/(1+(IC50/Dose)^Hill slope).
# (§3) Only Signal and Dose in the equation were treated as known values.
# BRD4(49-170) bromodomain = BRD4(49-170) bromodomain (Homo sapiens (Human), UniProt O60885); test: BRD4 AlphaScreen Assay; settings: binding to biotin-H4(1-21) Ac-K5/8/12/16 peptide
# Protocol: as §1, §2, §3
# Chain of GST-CBP(1081-1197) bromodomain (Q92793 1081-1197): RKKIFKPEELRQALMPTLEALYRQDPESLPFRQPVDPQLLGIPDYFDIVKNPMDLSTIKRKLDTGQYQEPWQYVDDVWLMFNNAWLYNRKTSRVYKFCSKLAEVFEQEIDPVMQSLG
Structure (SMILES),IC50 [1] [µM],IC50 (BRD4(49-170) bromodomain) [µM]
"CNC(=O)N1CCn2c(C3CC3)nc(-c3cccc4cc(N5CCOCC5)ncc34)c2C1 [Example 18, 3-cyclopropyl-N-methyl-1-(3-morpholinoisoquinolin-8-yl)-5,6-dihydroimidazo[1,5-a]pyrazine-7(8H)-carboxamide]",0.05,> 25
"CNC(=O)N1CCn2c(C3CC3)nc(-c3cccc4nc(-c5cnn(C)c5)c(C#N)cc34)c2C1 [Example 19, 1-(3-Cyano-2-(1-methyl-1H-pyrazol-4-yl)quinolin-5-yl)-3-cyclopropyl-N-methyl-5,6-dihydroimidazo[1,5-a]pyrazine-7(8H)-carboxamide]",0.005,> 25
"CNC(=O)N1CCn2c(C3CC3)nc(-c3cccc4cc(C5CCOCC5)ncc34)c2C1 [Example 21, 3-Cyclopropyl-N-methyl-1-(3-(tetrahydro-2H-pyran-4-yl)isoquinolin-8-yl)-5,6-dihydroimidazo[1,5-a]pyrazine-7(8H)-carboxamide]",0.02,> 25
"CC(=O)N1CCn2c(C3CC3)nc(-c3cnc4c(c3)c(-c3cnn(C)c3)nn4C)c2C1 [Example 26, 1-(3-cyclopropyl-1-(1-methyl-3-(1-methyl-1H-pyrazol-4-yl)-1H-pyrazolo[3,4-b]pyridin-5-yl)-5,6-dihydroimidazo[1,5-a]pyrazin-7(8H)-yl)ethan-1-one]",0.181,> 25
"CC(=O)N1CCn2c(C3CC3)nc(-c3ccc4nn(C)c(-c5cnn(C)c5)c4c3F)c2C1 [Example 27, 1-(3-Cyclopropyl-1-(4-fluoro-2-methyl-3-(1-methyl-1H-pyrazol-4-yl)-2H-indazol-5-yl)-5,6-dihydroimidazo[1,5-a]pyrazin-7(8H)-yl)ethan-1-one]",1.22,> 25
"CC(=O)N1CCn2c(C3CC3)nc(-c3ccc4c(c3)c(-c3c(C)noc3C)nn4C)c2C1 [Example 30, 1-(3-Cyclopropyl-1-(3-(3,5-dimethylisoxazol-4-yl)-1-methyl-1H-indazol-5-yl)-5,6-dihydroimidazo[1,5-a]pyrazin-7(8H)-yl)ethan-1-one]",1.19,> 25
"CNC(=O)N1CCn2c(C3CC3)nc(N3CCCc4nc(-c5cnn(C)c5)c(C(F)(F)F)cc43)c2C1 [Example 33, 3-Cyclopropyl-N-methyl-1-(6-(1-methyl-1H-pyrazol-4-yl)-7-(trifluoromethyl)-3,4-dihydro-1,5-naphthyridin-1(2H)-yl)-5,6-dihydroimidazo[1,5-a]pyrazine-7(8H)-carboxamide]",0.04,> 10
"CNC(=O)N1CCn2c(C3CC3)nc(-c3cccc4nc(-c5cnn(C)c5)c(C(F)F)cc34)c2C1 [Example 34, 3-Cyclopropyl-1-(3-(difluoromethyl)-2-(1-methyl-1H-pyrazol-4-yl)quinolin-5-yl)-N-methyl-5,6-dihydroimidazo[1,5-a]pyrazine-7(8H)-carboxamide]",0.037,17.3
"CC(=O)N1CCn2c(C3CC3)nc(N3CCCc4cc(-c5ccc(C(N)=O)cc5)ccc43)c2C1 [Example 35, 4-(1-(7-Acetyl-3-cyclopropyl-5,6,7,8-tetrahydroimidazo[1,5-a]pyrazin-1-yl)-1,2,3,4-tetrahydroquinolin-6-yl)benzamide]",0.079,> 25
"CNC(=O)N1CCn2c(C3CC3)nc(-c3ccnc4nc(-c5cnn(C)c5)c(C(F)F)cc34)c2C1 [Example 36, 3-Cyclopropyl-1-(6-(difluoromethyl)-7-(1-methyl-1H-pyrazol-4-yl)-1,8-naphthyridin-4-yl)-N-methyl-5,6-dihydroimidazo[1,5-a]pyrazine-7(8H)-carboxamide]",0.038,9.71
"CNC(=O)N1CCn2c(C3CC3)nc(-c3c[nH]c4cc(-c5cnn(C)c5)ncc34)c2C1 [Example 38, 3-Cyclopropyl-N-methyl-1-(6-(1-methyl-1H-pyrazol-4-yl)-1H-pyrrolo[3,2-c]pyridin-3-yl)-5,6-dihydroimidazo[1,5-a]pyrazine-7(8H)-carboxamide]",0.032,19.8
"CNC(=O)N1CCn2c(C3CC3)nc(-c3cncc4cc(-c5cnn(C)c5)c(C(F)F)cc34)c2C1 [Example 40, 3-Cyclopropyl-1-(6-(difluoromethyl)-7-(1-methyl-1H-pyrazol-4-yl)isoquinolin-4-yl)-N-methyl-5,6-dihydroimidazo[1,5-a]pyrazine-7(8H)-carboxamide]",0.002,4.78

# Continued by falling IC50 [1], values first:
IC50 [1] [µM],IC50 (BRD4(49-170) bromodomain) [µM],Structure (SMILES)
0.611,7.47,"CNC(=O)c1nc(-c2ccc3c(c2)c(-c2cnn(C)c2)nn3C)c2n1CCN(C(C)=O)C2 [Example 31, 7-Acetyl-N-methyl-1-(1-methyl-3-(1-methyl-1H-pyrazol-4-yl)-1H-indazol-5-yl)-5,6,7,8-tetrahydroimidazo[1,5-a]pyrazine-3-carboxamide]"
0.439,> 10,"CC(=O)N1CCn2c(Cl)nc(-c3ccc4c(c3)c(-c3cnn(C)c3)nn4C)c2C1 [Example 32, 1-(3-Chloro-1-(1-methyl-3-(1-methyl-1H-pyrazol-4-yl)-1H-indazol-5-yl)-5,6-dihydroimidazo[1,5-a]pyrazin-7(8H)-yl)ethan-1-one]"
0.392,> 25,"CC(=O)N1CCn2c(N3CCOCC3)nc(-c3ccc4c(c3)c(-c3cnn(C)c3)nn4C)c2C1 [Example 16, 1-(1-(1-Methyl-3-(1-methyl-1H-pyrazol-4-yl)-1H-indazol-5-yl)-3-morpho-lino-5,6-dihydroimidazo[1,5-a]pyrazin-7(8H)-yl)ethanone]"
0.324,> 25,"CC(=O)N1CCn2c(C3CC3)nc(-c3ccnc4c3cc(-c3cnn(C)c3)n4C)c2C1 [Example 29, 1-(3-Cyclopropyl-1-(1-methyl-2-(1-methyl-1H-pyrazol-4-yl)-1H-pyrrolo[2,3-b]pyridin-4-yl)-5,6-dihydroimidazo[1,5-a]pyrazin-7(8H)-yl)ethan-1-one]"
0.286,> 25,"CC(=O)N1CCn2c(C3CCS(=O)(=O)CC3)nc(-c3ccc4c(c3)c(-c3cnn(C)c3)nn4C)c2C1 [Example 14, 1-[3-(1,1-Dioxothian-4-yl)-1-[1-methyl-3-(1-methylpyrazol-4-yl)indazol-5-yl]-6,8-dihydro-5H-imidazo[1,5-a]pyrazin-7-yl]ethanone]"
0.057,15.9,"CC(=O)N1CCn2c(C3CC3)nc(-c3ccc4c(c(-c5cnn(C)c5)nn4C)c3F)c2C1 [Example 25, 1-(3-cyclopropyl-1-(4-fluoro-1-methyl-3-(1-methyl-1H-pyrazol-4-yl)-1H-indazol-5-yl)-5,6-dihydroimidazo[1,5-a]pyrazin-7(8H)-yl)ethan-1-one]"
0.046,21.9,"CNC(=O)N1CCn2c(C3CCS(=O)(=O)CC3)nc(-c3ccc4c(c3)c(-c3cnn(C)c3)nn4C)c2C1 [Example 15, 3-(1,1-Dioxothian-4-yl)-N-methyl-1-[1-methyl-3-(1-methylpyrazol-4-yl)indazol-5-yl]-6,8-dihydro-5H-imidazo[1,5-a]pyrazine-7-carboxamide]"
0.033,18.6,"CC(=O)N1CCn2c(C3CC3)nc(-c3cc4c(-c5cnn(C)c5)nn(C)c4cc3F)c2C1 [Example 28, 1-(3-Cyclopropyl-1-(6-fluoro-1-methyl-3-(1-methyl-1H-pyrazol-4-yl)-1H-indazol-5-yl)-5,6-dihydroimidazo[1,5-a]pyrazin-7(8H)-yl)ethan-1-one]"
0.033,14.8,"CNC(=O)N1CCn2c(C3CC3)nc(-c3csc4cc(-c5cnn(C)c5)ncc34)c2C1 [Example 39, 3-Cyclopropyl-N-methyl-1-(6-(1-methyl-1H-pyrazol-4-yl)thieno[3,2-c]pyridin-3-yl)-5,6-dihydroimidazo[1,5-a]pyrazine-7(8H)-carboxamide]"
0.018,25,"CNC(=O)N1CCn2c(C3CC(F)(F)C3)nc(-c3cccc4nc(-c5cnn(C)c5)c(C(F)(F)F)cc34)c2C1 [Example 20, 3-(3,3-Difluorocyclobutyl)-N-methyl-1-(2-(1-methyl-1H-pyrazol-4-yl)-3-(trifluoromethyl)quinolin-5-yl)-5,6-dihydroimidazo[1,5-a]pyrazine-7(8H)-carboxamide]"
0.016,14.3,"CNC(=O)N1CCn2c(C3CC3)nc(-c3cccc4nc(-c5cnn(C)c5)ncc34)c2C1 [Example 37, 3-Cyclopropyl-N-methyl-1-(2-(1-methyl-1H-pyrazol-4-yl)quinazolin-5-yl)-5,6-dihydroimidazo[1,5-a]pyrazine-7(8H)-carboxamide]"
0.006,9.11,"CNC(=O)N1CCn2c(C3CC3)nc(-c3cccc4nc(N5CCOCC5)c(C#N)cc34)c2C1 [Example 24, 1-(3-Cyano-2-morpholinoquinolin-5-yl)-3-cyclopropyl-N-methyl-5,6-dihydroimidazo[1,5-a]pyrazine-7(8H)-carboxamide]"
0.003,7.06,"CNC(=O)N1CCn2c(C3CC3)nc(-c3c(F)ccc4cc(-c5cnc(C)s5)ncc34)c2C1 [Example 22, 3-Cyclopropyl-1-(7-fluoro-3-(2-methylthiazol-5-yl)isoquinolin-8-yl)-N-methyl-5,6-dihydroimidazo[1,5-a]pyrazine-7(8H)-carboxamide]"
0.001,5.09,"CNC(=O)c1ccc(-c2cc3cccc(-c4nc(C5CC5)n5c4CN(C(=O)NC)CC5)c3cn2)cn1 [Example 17, 3-Cyclopropyl-N-methyl-1-(3-(6-(methylcarbamoyl)pyridin-3-yl)isoquinolin-8-yl)-5,6-dihydroimidazo[1,5-a]pyrazine-7(8H)-carboxamide]"
0.001,3.85,"CNC(=O)N1CCn2c(C3CC3)nc(-c3cccc4cc(-c5cnc(C)s5)ncc34)c2C1 [Example 23, 3-Cyclopropyl-N-methyl-1-(3-(2-methylthiazol-5-yl)isoquinolin-8-yl)-5,6-dihydroimidazo[1,5-a]pyrazine-7(8H)-carboxamide]"
